The values that follow come from article PMC12181400, “Leveraging viral genome sequences and machine learning models for identification of potentially selective antiviral agents” (Communications Chemistry, 2025).

Each structure is given as a SMILES string. Where a name gives a salt, the structure may show the parent alone. Read-outs that look alike come from different tables or passages of the source.

The test system of data set [1] is SARS-CoV-2 Spike protein containing PPs, entry into HEK293-ACE2 cells. The data set can be described thus: microbe, parasite or virus in culture. Conditions: PP entry, HEK293-ACE2, 48 h, mean ± SD of two independent experiments; for IC50: Severe acute respiratory syndrome coronavirus 2, 11 concentrations. The data set is classed as cell-based.
In data set [2] the test system is hepatitis B surface antigen (HBsAg) secretion. Also on record: method as in PMID 17723297. To be noted: Hep G2.2.15 cell line; read-out: IC50, inhibition of HBsAg secretion; cited from earlier work.
Data set [3] concerns wild-type (WT) and drug-resistant HIV-1 isolates. Also noted: method as in pmid 18043758. Conditions: multiple wild-type and drug-resistant HIV-1 isolates; ref pmid 18043758; cited from earlier work.
Data set [4] has as its system MT-4 cells. Also on record: method as in pmid 19265512. Conditions: MT-4 cells in the presence of 20% NHS; ref pmid 19265512; read-out: antiviral EC90; cited from earlier work.
In data set [5] the test system is IN. Also on record: method as in pmid 19265512. Conditions: in vitro strand transfer assay; ref pmid 19265512; read-out: IC50, inhibition of IN; cited from earlier work.
The subject of data set [6] is cell viability (tox21-car-antagonist-p1). To be noted: cited from earlier work.
In data set [7] the test system is cell viability (tox21-ar-mda-kb2-luc-antagonist-p2). To be noted: cited from earlier work.
For data set [8], the system named is cell viability (tox21-ap1-agonist-p1). To be noted: cited from earlier work.
Data set [9] deals with cell viability (tox21-are-bla-p1). To be noted: cited from earlier work.
Data set [10] concerns cell viability (tox21-ar-mda-kb2-luc-agonist-p3). To be noted: cited from earlier work.
In data set [11] the test system is cell viability (tox21-car-agonist-p1). Conditions: cited from earlier work.
[12] abbreviates: curve rank −9 to 9, 0 = inactive, ref NCATS Tox21 public data browser.

One may read the IC50 as the point on the concentration scale where inhibition reaches its midpoint. For `COc1ccc(C(CNC(=O)c2ccc3ccccc3n2)N2CCCC2)cc1` (centres unmarked) [NCGC00622469], in [1], the efficacy was −64.06 ± 9.68% and the IC50 was 5.91 ± 7 µM.
The like results for `COc1ccc(-c2nc3ccccc3n2Cc2ccccc2)cc1COc1ccc(NC(C)=O)cc1` [NCGC00166392] were, in that order, −83.25 ± 8.42% and 1.37 µM.
For `O=C(Nc1nc(-c2ccc(F)cc2)cs1)c1c(F)cccc1F` [NCGC00633127] the same measures were −67.42 ± 5.30% and 4.59 ± 0.37 µM.
With `COc1cc2c3c(c1O)C1(C=CC(=O)C=C1)CC3N(C)CC2` (centres unmarked) [glaziovine], the IC50 in data set [2] was 8 µM.
Take `C=C(C)[C@@H]1CC[C@]2(C(=O)O)CC[C@]3(C)[C@H](CC[C@@H]4[C@@]5(C)CC[C@H](OC(=O)CC(C)(C)C(=O)O)C(C)(C)[C@@H]5CC[C@]43C)[C@@H]12` [bevirimat, 3-O-(3',3'-dimethylsuccinyl) betulinic acid]: in [3], the “in vitro antiviral activity” value is given as 10 nM.
One may read the EC90 as the concentration at which the effect reaches the 90% level. `Cn1c(=O)c(C(=O)NCCO)c(O)c2ncc(Cc3ccc(F)cc3)cc21` [GSK-364735]: in data set [4], the EC90 was 40 nM. Besides, the half-maximal inhibitory concentration (IC50) in data set [5] is 8 nM.
For the molecule `N=c1ccn(C2OC(COP(=O)(O)O)C(O)C2O)c(=O)[nH]1` (centres unmarked) [NCGC00014029], in data set [1], the efficacy is reported as −76.63 ± 14.92% and the IC50 stood at 1.31 ± 0.32 µM.
For `CC(C)(Sc1cc(C(C)(C)C)c(O)c(C(C)(C)C)c1)Sc1cc(C(C)(C)C)c(O)c(C(C)(C)C)c1` [Probucol], the “tox21-car-antagonist-p1-viability (curve rank)” value in data set [6] is reported as 0. Further, the “tox21-ar-mda-kb2-luc-antagonist-p2-viability (curve rank)” value in data set [7] is 0. Further, the “tox21-ap1-agonist-p1-viability (curve rank)” value (from here on “tox21-ap1-agonist-p1-viability”) in [8] is recorded as 0. The “tox21-are-bla-p1-viability (curve rank)” value in data set [9] is given as 0. Further, in data set [10], the “tox21-ar-mda-kb2-luc-agonist-p3-viability (curve rank)” value is given as 0. Besides, in data set [11], the “tox21-car-agonist-p1-viability (curve rank)” value (“tox21-car-agonist-p1-viability” for short) is listed as 0.
With `Cc1cc(CC(=O)[O-])n(C)c1C(=O)c1ccc(Cl)cc1.[Na+]` [Sodium zomepirac], the “tox21-car-antagonist-p1-viability (curve rank)” value in data set [6] (setting [12]) is 0. Moreover, in data set [7] (setting [12]), the “tox21-ar-mda-kb2-luc-antagonist-p2-viability (curve rank)” value is 0. Further, in data set [8] (setting [12]), the “tox21-ap1-agonist-p1-viability” value was 0. For the same molecule, the “tox21-are-bla-p1-viability (curve rank)” value in data set [9] (setting [12]) is 0. Further, the “tox21-ar-mda-kb2-luc-agonist-p3-viability (curve rank)” value in data set [10] (setting [12]) is reported as 0. In data set [11] (setting [12]), the “tox21-car-agonist-p1-viability” value was 0.
With `COc1cccc(C2(O)CCCCC2CN(C)C)c1.Cl` (centres unmarked) [Tramadol hydrochloride], the “tox21-car-antagonist-p1-viability (curve rank)” value in data set [6] (setting [12]) was 0. Besides, in [7] (setting [12]), the “tox21-ar-mda-kb2-luc-antagonist-p2-viability (curve rank)” value is 0. In data set [8] (setting [12]), the “tox21-ap1-agonist-p1-viability” value is on record as 0. Also, in data set [9] (setting [12]), the “tox21-are-bla-p1-viability (curve rank)” value is given as 0. The “tox21-ar-mda-kb2-luc-agonist-p3-viability (curve rank)” value in data set [10] (setting [12]) was 0. Moreover, in data set [11] (setting [12]), the “tox21-car-agonist-p1-viability” value is given as 0.
With `CCN(CC)CCNC(=O)c1cc(Br)c(N)cc1OC` [Bromopride], the “tox21-car-antagonist-p1-viability (curve rank)” value in data set [6] was 0. Also, the “tox21-ar-mda-kb2-luc-antagonist-p2-viability (curve rank)” value in data set [7] is recorded as 0. Moreover, the “tox21-ap1-agonist-p1-viability” value in data set [8] is 0. In data set [9], the “tox21-are-bla-p1-viability (curve rank)” value is recorded as 0. In addition, in data set [10], the “tox21-ar-mda-kb2-luc-agonist-p3-viability (curve rank)” value is recorded as 0. Besides, the “tox21-car-agonist-p1-viability” value in data set [11] is 0.
`CC[C@@H](CO)NC(=O)[C@@H]1C=C2c3cccc4c3c(cn4C)C[C@H]2N(C)C1` [Methysergide]: in [6] (setting [12]), the “tox21-car-antagonist-p1-viability (curve rank)” value is reported as 0. Further, in [7] (setting [12]), the “tox21-ar-mda-kb2-luc-antagonist-p2-viability (curve rank)” value was 0. Further, in [8] (setting [12]), the “tox21-ap1-agonist-p1-viability” value was 0. The “tox21-are-bla-p1-viability (curve rank)” value in data set [9] (setting [12]) was 0. For the same molecule, the “tox21-ar-mda-kb2-luc-agonist-p3-viability (curve rank)” value in data set [10] (setting [12]) is 0. Moreover, the “tox21-car-agonist-p1-viability” value in [11] (setting [12]) is 0.
Regarding `NC(=O)c1ccc([N+](=O)[O-])cc1Cl` [2-Chloro-4-nitrobenzamide], in data set [6] (setting [12]), the “tox21-car-antagonist-p1-viability (curve rank)” value is reported as 0. Further, the “tox21-ar-mda-kb2-luc-antagonist-p2-viability (curve rank)” value in data set [7] (setting [12]) is reported as 0. Besides, the “tox21-ap1-agonist-p1-viability” value in data set [8] (setting [12]) was 0. The “tox21-are-bla-p1-viability (curve rank)” value in data set [9] (setting [12]) is recorded as 0. Also, the “tox21-ar-mda-kb2-luc-agonist-p3-viability (curve rank)” value in [10] (setting [12]) is listed as 0. Moreover, the “tox21-car-agonist-p1-viability” value in data set [11] (setting [12]) is reported as 0.
Take `NS(=O)(=O)c1cc2c(cc1C(F)(F)F)NC(Cc1ccccc1)NS2(=O)=O` (centres unmarked) [Bendroflumethiazide]: in data set [6], the “tox21-car-antagonist-p1-viability (curve rank)” value is 0. Besides, the “tox21-ar-mda-kb2-luc-antagonist-p2-viability (curve rank)” value in data set [7] is listed as 0. In addition, the “tox21-ap1-agonist-p1-viability” value in data set [8] is listed as 0. Moreover, the “tox21-are-bla-p1-viability (curve rank)” value in data set [9] was 0. In addition, in data set [10], the “tox21-ar-mda-kb2-luc-agonist-p3-viability (curve rank)” value was 0. In data set [11], the “tox21-car-agonist-p1-viability” value was 0.
`CN(C)CCn1nnnc1SCC1=C(C(=O)O)N2C(=O)[C@@H](NC(=O)Cc3csc(N)n3)[C@H]2SC1` [Cefotiam hydrochloride]: the “tox21-car-antagonist-p1-viability (curve rank)” value in [6] is reported as 0. Further, the “tox21-ar-mda-kb2-luc-antagonist-p2-viability (curve rank)” value in [7] is 0. Besides, the “tox21-ap1-agonist-p1-viability” value in [8] is reported as 0. In addition, the “tox21-are-bla-p1-viability (curve rank)” value in data set [9] is listed as 0. For the same molecule, the “tox21-ar-mda-kb2-luc-agonist-p3-viability (curve rank)” value in data set [10] is listed as 0. Also, the “tox21-car-agonist-p1-viability” value in [11] was 0.
With `COc1ccc(-c2csc3ncnc(N(C)CCO)c23)cc1` [NCGC00608516], in data set [1], the efficacy is recorded as −93.10 ± 32.33% and it took 11.7 ± 2.82 µM to reach half-maximal inhibition (IC50).
With `CCCC(=O)Nc1ccc(OCC(O)CNC(C)C)c(C(C)=O)c1` (centres unmarked) [Acebutolol hydrochloride], the “tox21-car-antagonist-p1-viability (curve rank)” value in data set [6] is reported as 0. Further, the “tox21-ar-mda-kb2-luc-antagonist-p2-viability (curve rank)” value in data set [7] is on record as 0. For the same molecule, in data set [8], the “tox21-ap1-agonist-p1-viability” value is given as 0. Further, the “tox21-are-bla-p1-viability (curve rank)” value in [9] is recorded as 0. Moreover, the “tox21-ar-mda-kb2-luc-agonist-p3-viability (curve rank)” value in data set [10] is given as 0. The “tox21-car-agonist-p1-viability” value in [11] is recorded as 0.
For the molecule `NS(=O)(=O)c1cc2c(cc1Cl)NC(C1CC3C=CC1C3)NS2(=O)=O` (centres unmarked) [Cyclothiazide], the “tox21-car-antagonist-p1-viability (curve rank)” value in data set [6] (setting [12]) was 0. Moreover, the “tox21-ar-mda-kb2-luc-antagonist-p2-viability (curve rank)” value in data set [7] (setting [12]) is listed as 0. Also, in data set [8] (setting [12]), the “tox21-ap1-agonist-p1-viability” value is 0. Further, in data set [9] (setting [12]), the “tox21-are-bla-p1-viability (curve rank)” value is recorded as 0. For the same molecule, the “tox21-ar-mda-kb2-luc-agonist-p3-viability (curve rank)” value in [10] (setting [12]) is given as 0. Besides, the “tox21-car-agonist-p1-viability” value in data set [11] (setting [12]) is given as 0.
`CCOC(=O)[N-]c1cn(N2CCOCC2)n[o+]1` [Molsidomine]: the “tox21-car-antagonist-p1-viability (curve rank)” value in data set [6] was 0. The “tox21-ar-mda-kb2-luc-antagonist-p2-viability (curve rank)” value in [7] was 0. Also, the “tox21-ap1-agonist-p1-viability” value in data set [8] is 0. In addition, the “tox21-are-bla-p1-viability (curve rank)” value in data set [9] was 0. Besides, the “tox21-ar-mda-kb2-luc-agonist-p3-viability (curve rank)” value in data set [10] is on record as 0. Besides, in data set [11], the “tox21-car-agonist-p1-viability” value is recorded as 0.
In the case of `Nc1ccc(C(=O)Oc2ccccc2)c(O)c1` [Phenyl 4-aminosalicylate], the “tox21-car-antagonist-p1-viability (curve rank)” value in [6] (setting [12]) was 0. In addition, the “tox21-ar-mda-kb2-luc-antagonist-p2-viability (curve rank)” value in data set [7] (setting [12]) is recorded as 0. Also, the “tox21-ap1-agonist-p1-viability” value in data set [8] (setting [12]) was 0. In data set [9] (setting [12]), the “tox21-are-bla-p1-viability (curve rank)” value is listed as 0. In addition, the “tox21-ar-mda-kb2-luc-agonist-p3-viability (curve rank)” value in data set [10] (setting [12]) is on record as 0. Besides, the “tox21-car-agonist-p1-viability” value in [11] (setting [12]) is listed as 0.
`Brc1c(NC2=NCCN2)ccc2nccnc12` [Brimonidine]: in data set [6], the “tox21-car-antagonist-p1-viability (curve rank)” value is recorded as 0. The “tox21-ar-mda-kb2-luc-antagonist-p2-viability (curve rank)” value in data set [7] is given as 0. For the same molecule, in data set [8], the “tox21-ap1-agonist-p1-viability” value is given as 0. For the same molecule, the “tox21-are-bla-p1-viability (curve rank)” value in data set [9] is on record as 0. For the same molecule, the “tox21-ar-mda-kb2-luc-agonist-p3-viability (curve rank)” value in data set [10] is given as 0. The “tox21-car-agonist-p1-viability” value in data set [11] is 0.
